Laboratory results: article PMC7504677, “Impact of N-Alkylamino Substituents on Serotonin Receptor (5-HTR) Affinity and Phosphodiesterase 10A (PDE10A) Inhibition of Isoindole-1,3-dione Derivatives” (Molecules, 2020)

What was measured:
PDE10A = PDE10A (Homo sapiens, UniProt Q9Y233); assay: luminescence PDE inhibition assay (PDElight HTS cAMP phosphodiesterase assay kit); assay type: biochemical; conditions: for inhibition at 3 µM / inhibition at 10 µM: 1 h, percentage of inhibition respective to vehicle control (DMSO); for IC50: SEM of three independent experiments performed in duplicate
Protocol: Test and reference compounds were dissolved in dimethyl sulfoxide (DMSO) at a concentration of 1 mM and further diluted in assay buffer in order to obtain the final concentration of compounds: 10 µM and 3 µM, respectively. All reactions were carried out at 37 °C in white, half-area 96-well plates (Perkin Elmer, Waltham, MA, USA). The inhibition of PDE 10A enzyme was measured using the PDElight HTS cAMP phosphodiesterase assay kit (Lonza) according to the manufacturer’s recommendations. 2.5 U of PDE 10A enzyme was preincubated either with DMSO (vehicle control) or compound for 20 min before incubation with the substrate, cAMP (final concentration 1.25 µM), for 1 h. Then, PDELight AMP Detection Reagent was added. After 10 min incubation, the luminescence was measured in a multifunction plate reader (POLARstar Omega, BMG Labtech, Ortenberg, Germany).

5-HT1A receptor = target: T1, 5-HT1A receptor (Homo sapiens, UniProt P08908); assay: radioligand binding assay, [3H]8-OH-DPAT; conditions: read-out: 5-HT1A 1 µM ± SEM (% of control specific binding)
T1 sequence (P08908 1-422): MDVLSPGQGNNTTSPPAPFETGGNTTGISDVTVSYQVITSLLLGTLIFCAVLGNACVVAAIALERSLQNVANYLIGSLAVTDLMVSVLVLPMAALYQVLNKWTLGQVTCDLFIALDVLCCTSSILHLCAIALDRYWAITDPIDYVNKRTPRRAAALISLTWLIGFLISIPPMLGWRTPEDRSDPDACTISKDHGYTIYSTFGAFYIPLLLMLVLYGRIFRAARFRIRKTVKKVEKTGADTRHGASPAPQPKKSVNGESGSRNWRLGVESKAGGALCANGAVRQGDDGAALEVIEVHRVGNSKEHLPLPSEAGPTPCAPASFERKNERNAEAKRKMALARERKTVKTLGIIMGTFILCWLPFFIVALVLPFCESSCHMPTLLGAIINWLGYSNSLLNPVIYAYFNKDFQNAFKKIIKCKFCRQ
Protocol: (§1) Briefly: binding experiments were conducted in 96-well microplates in a total final volume of 250 μL of appropriate buffers. Reaction mix included 50 μL solution of test compound, 50 μL of radioligand ([^3H]8-OH-DPAT for 5-HT1A, and [^3H]-LSD for 5-HT7, respectively) and 150 μL of diluted membranes (see description and Table S2 in Supporting Materials). Specific assay conditions for each receptor are described elsewhere. The radioactivity was measured in a MicroBeta2 scintillation counter (PerkinElmer, USA). Each compound was tested in the assay as duplicate samples at 1 µM final concentrations. Results were expressed as percent inhibition of specific binding.

5-HT7 receptor = 5-HT7 receptor (Homo sapiens, UniProt P34969); assay: radioligand binding assay, [3H]-LSD; conditions: read-out: 5-HT7 1 µM ± SEM (% of control specific binding)
Protocol: as §1

Chain of 5-HT7 receptor (P34969 whole entry): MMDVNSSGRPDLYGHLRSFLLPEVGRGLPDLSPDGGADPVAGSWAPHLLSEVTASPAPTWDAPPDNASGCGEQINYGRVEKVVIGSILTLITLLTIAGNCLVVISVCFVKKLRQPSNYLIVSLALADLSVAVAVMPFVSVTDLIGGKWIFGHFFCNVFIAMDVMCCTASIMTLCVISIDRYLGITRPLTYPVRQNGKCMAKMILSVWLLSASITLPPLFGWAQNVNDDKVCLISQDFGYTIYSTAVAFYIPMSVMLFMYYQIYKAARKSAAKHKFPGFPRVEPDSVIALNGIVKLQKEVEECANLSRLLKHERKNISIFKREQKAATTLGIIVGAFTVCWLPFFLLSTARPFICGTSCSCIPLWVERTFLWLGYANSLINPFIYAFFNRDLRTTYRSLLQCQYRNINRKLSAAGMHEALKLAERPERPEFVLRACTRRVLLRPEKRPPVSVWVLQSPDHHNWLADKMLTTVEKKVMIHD
Chain of PDE10A (Q9Y233 whole entry, species assumed): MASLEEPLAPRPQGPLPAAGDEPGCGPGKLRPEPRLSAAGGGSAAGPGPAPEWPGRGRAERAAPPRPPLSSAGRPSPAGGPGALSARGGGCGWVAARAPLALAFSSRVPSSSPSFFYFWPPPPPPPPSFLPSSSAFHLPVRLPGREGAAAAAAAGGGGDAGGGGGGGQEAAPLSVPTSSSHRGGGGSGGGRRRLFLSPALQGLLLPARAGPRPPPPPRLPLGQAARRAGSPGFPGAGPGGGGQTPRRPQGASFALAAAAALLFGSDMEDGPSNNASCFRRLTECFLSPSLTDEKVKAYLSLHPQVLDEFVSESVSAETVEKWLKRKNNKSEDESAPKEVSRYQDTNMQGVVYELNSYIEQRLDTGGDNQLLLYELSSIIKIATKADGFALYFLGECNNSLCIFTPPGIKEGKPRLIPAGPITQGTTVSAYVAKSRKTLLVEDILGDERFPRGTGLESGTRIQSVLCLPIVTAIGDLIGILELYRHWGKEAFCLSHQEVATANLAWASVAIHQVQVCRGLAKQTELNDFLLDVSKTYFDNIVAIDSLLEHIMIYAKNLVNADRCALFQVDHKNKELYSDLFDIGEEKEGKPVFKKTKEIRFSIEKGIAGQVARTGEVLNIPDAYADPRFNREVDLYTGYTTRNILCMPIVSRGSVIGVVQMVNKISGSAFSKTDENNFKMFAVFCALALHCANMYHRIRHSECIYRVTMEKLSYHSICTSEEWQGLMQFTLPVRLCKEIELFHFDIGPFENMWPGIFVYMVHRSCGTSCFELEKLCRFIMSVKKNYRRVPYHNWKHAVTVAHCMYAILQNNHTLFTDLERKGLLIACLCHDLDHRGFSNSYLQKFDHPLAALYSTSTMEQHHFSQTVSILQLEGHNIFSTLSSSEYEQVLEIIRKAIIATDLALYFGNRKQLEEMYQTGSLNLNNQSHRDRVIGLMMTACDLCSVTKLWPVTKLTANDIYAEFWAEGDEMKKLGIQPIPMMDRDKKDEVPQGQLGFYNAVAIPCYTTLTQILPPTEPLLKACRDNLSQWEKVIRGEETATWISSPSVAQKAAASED

| SMILES | inhibition at 3 µM (PDE10A) [%] | inhibition at 10 µM (PDE10A) [%] | IC50 (PDE10A) [µM] | inhibition at 1 µM (5-HT1A receptor) [%] | melting point [°C] | inhibition at 1 µM (5-HT7 receptor) [%] |
| --- | --- | --- | --- | --- | --- | --- |
| COc1cccc2c1C(=O)N(CCN1CCC3CCCCC3C1)C2=O (centres unmarked) [Compound 5, 2-[2-(Octahydroisoquinolin-2(1H)-yl)ethyl]-4-methoxy-1H-isoindole-1,3(2H)-dione] | 0 | 0 | – | 25 ± 3 | 145 to 146 | 0 |
| COc1cccc2c1C(=O)N(CCCN1CCC3CCCCC3C1)C2=O (centres unmarked) [Compound 8, 2-[3-(Octahydroisoquinolin-2(1H)-yl)propyl]-4-methoxy-1H-isoindole-1,3(2H)-dione] | 7 | 7 | – | 28 ± 3 | 103 to 104 | 0 |
| COc1cccc2c1C(=O)N(Cc1ccccn1)C2=O [Compound 10, 4-Methoxy-2-(pyridin-2-ylmethyl)-1H-isoindole-1,3(2H)-dione] | 0 | 0 | – | 10 ± 1 | 144 to 145 | 0 |
| COc1cccc2c1C(=O)N(CCN1CCc3ccccc3C1)C2=O [Compound 4, 2-[2-(3,4-Dihydroisoquinolin-2(1H)-yl)ethyl]-4-methoxy-1H-isoindole-1,3(2H)-dione] | 0 | 0 | – | 12 ± 4 | 157 to 158 | 0 |
| COc1cccc2c1C(=O)N(Cc1nc3ccccc3[nH]1)C2=O [Compound 11, 2-(1H-Benzimidazol-2-ylmethyl)-4-methoxy-1H-isoindole-1,3(2H)-dione] | 7 | 15 | – | 39 ± 3 | 239 to 240 | 0 |
| COc1cccc2c1C(=O)N(CCc1c[nH]cn1)C2=O [Compound 14, 2-[2-(1H-Imidazol-4-yl)ethyl]-4-methoxy-1H-isoindole-1,3(2H)-dione] | 0 | 0 | – | 21 ± 1 | 227 to 228 | 0 |
| COc1cc2c(cc1OC)CN(CCN1C(=O)c3cccc(OC)c3C1=O)CC2 [Compound 3, 2-[2-(6,7-Dimethoxy-3,4-dihydroisoquinolin-2(1H)-yl)ethyl]-4-methoxy-1H-isoindole-1,3(2H)-dione] | 0 | 0 | – | 27 ± 3 | 108 to 109 | 0 |
| COc1cccc2c1C(=O)N(CCCN1CCc3ccccc3C1)C2=O [Compound 7, 2-[3-(3,4-Dihydroisoquinolin-2(1H)-yl)propyl]-4-methoxy-1H-isoindole-1,3(2H)-dione] | 18 | 19 | – | 33 ± 2 | 92 to 93 | 51 ± 2 |
| COc1cc2c(cc1OC)CN(CCCN1C(=O)c3cccc(OC)c3C1=O)CC2 [Compound 6, 2-[3-(6,7-Dimethoxy-3,4-dihydroisoquinolin-2(1H)-yl)propyl]-4-methoxy-1H-isoindole-1,3(2H)-dione] | 0 | 0 | – | 32 ± 4 | 107 to 109 | 0 |
| COc1cccc2c1C(=O)N(Cc1ccccc1)C2=O [Compound 9, 2-Benzyl-4-methoxy-1H-isoindole-1,3(2H)-dione] | 0 | 0 | – | 6 ± 2 | 167 to 168 | 0 |

Next, values leading:

| inhibition at 3 µM (PDE10A) [%] | inhibition at 10 µM (PDE10A) [%] | IC50 (PDE10A) [µM] | inhibition at 1 µM (5-HT1A receptor) [%] | melting point [°C] | inhibition at 1 µM (5-HT7 receptor) [%] | SMILES |
| --- | --- | --- | --- | --- | --- | --- |
| 47 | 73 | 5.65 ± 0.495 | 20 ± 3 | 179 to 180 | 15 ± 2 | O=C1c2ccccc2C(=O)N1CCCCc1nc2ccccc2[nH]1 [Compound 22, 2-[4-(1H-Benzimidazol-2-yl)butyl]-1H-isoindole-1,3(2H)-dione] |
| 26 | 58 | – | 48 ± 3 | 168 to 169 | 34 ± 2 | O=C1c2ccccc2C(=O)N1CCCCCc1nc2ccccc2[nH]1 [Compound 23, 2-[5-(1H-Benzimidazol-2-yl)pentyl]-1H-isoindole-1,3(2H)-dione] |
| 0 | 1 | – | 26 ± 2 | 202 to 203 | 36 | O=C1c2ccccc2C(=O)N1CCc1nc2ccccc2[nH]1 [Compound 20, 2-[2-(1H-Benzimidazol-2-yl)ethyl]-1H-isoindole-1,3(2H)-dione] |
| 52 | 75 | 4.31 ± 0.365 | 28 ± 2 | 108 to 109 | 6 | COc1cccc2c1C(=O)N(CCCCCc1nc3ccccc3[nH]1)C2=O [Compound 19, 2-[5-(1H-Benzimidazol-2-yl)pentyl]-4-methoxy-1H-isoindole-1,3(2H)-dione] |
| 40 | 70 | 6.71 ± 0.195 | 44 ± 5 | 197 to 198 | 0 | COc1cccc2c1C(=O)N(CCc1nc3ccccc3[nH]1)C2=O [Compound 15, 2-[2-(1H-Benzimidazol-2-yl)ethyl]-4-methoxy-1H-isoindole-1,3(2H)-dione] |
| 0 | 0 | – | 59 ± 4 | 155 to 157 | 0 | COc1cccc2c1C(=O)N(CCc1ccccn1)C2=O [Compound 13, 4-Methoxy-2-[2-(pyridin-2-yl)ethyl]-1H-isoindole-1,3(2H)-dione] |
| 16 | 45 | – | 27 ± 2 | 190 to 191 | 14 ± 2 | O=C1c2ccccc2C(=O)N1CCCc1nc2ccccc2[nH]1 [Compound 21, 2-[3-(1H-Benzimidazol-2-yl)propyl]-1H-isoindole-1,3(2H)-dione] |
| 73 | 86 | 1.001 ± 0.009 | 16 ± 5 | 217 to 218 | 10 ± 3 | COc1cccc2c1C(=O)N(CCCc1nc3ccccc3[nH]1)C2=O [Compound 17, 2-[3-(1H-Benzimidazol-2-yl)propyl]-4-methoxy-1H-isoindole-1,3(2H)-dione] |
| 11 | 13 | – | 32 ± 3 | 94 to 95 | 14 | COc1cccc2c1C(=O)N(CCCc1ccccc1)C2=O [Compound 16, 4-Methoxy-2-(3-phenylpropyl)-1H-isoindole-1,3(2H)-dione] |
| 5 | 10 | – | 13 ± 2 | 123 to 124 | 0 | COc1cccc2c1C(=O)N(CCc1ccccc1)C2=O [Compound 12, 4-Methoxy-2-(2-phenylethyl)-1H-isoindole-1,3(2H)-dione] |
